Measured values from ChEMBL document CHEMBL1201862, “PubChem BioAssay data set” (2004).
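Growth conditions: 96-well plates. Treatment: test compound, 48 hours, 5 concentrations. Analysis: linear interpolation between bracketing concentrations; unreached endpoints set to highest concentration. At the GI50, growth is halved.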 Activity calls are given as the source filed them. Cut-off read from the data, not from the text of the source: active = GI50 up to about 1.1 µM and inactive = higher.

How the values were obtained:
Experiment in all cases: inhibition of tumour cell growth, NCI panel, 48 h
A549 = test system: A549
ACHN = test system: ACHN
HCT-116 = test system: HCT-116
HCT-15 = test system: HCT-15
Hs-578T = test system: Hs-578T
K562 = test system: K562
MDA-MB-231 = test system: MDA-MB-231
MDA-N = test system: MDA-N
NCI-H226 = test system: NCI-H226
NCI/ADR-RES = test system: NCI/ADR-RES
OVCAR-4 = test system: OVCAR-4
OVCAR-8 = test system: OVCAR-8
RXF 393 = test system: RXF 393
SF-295 = test system: SF-295
SK-MEL-2 = test system: SK-MEL-2
SK-OV-3 = test system: SK-OV-3
SNB-19 = test system: SNB-19
SR = test system: SR
UACC-257 = test system: UACC-257
UACC-62 = test system: UACC-62

CC(CN(C)C)C(O)(c1ccccc1)c1ccccc1 (stereo not given)
GI50 (A549): > 100 µM (inactive) | GI50 (ACHN): > 100 µM (inactive) | GI50 (HCT-116): > 100 µM (inactive) | GI50 (HCT-15): > 100 µM | GI50 (Hs-578T): > 100 µM (inactive) | GI50 (K562): > 100 µM (inactive) | GI50 (MDA-MB-231): > 100 µM (inactive) | GI50 (MDA-N): > 100 µM (inactive) | GI50 (NCI-H226): > 100 µM (inactive) | GI50 (NCI/ADR-RES): > 100 µM (inactive) | GI50 (OVCAR-4): > 100 µM (inactive) | GI50 (OVCAR-8): > 100 µM (inactive) | GI50 (RXF 393): > 100 µM (inactive) | GI50 (SF-295): > 100 µM (inactive) | GI50 (SK-MEL-2): > 100 µM (inactive) | GI50 (SK-OV-3): > 100 µM (inactive) | GI50 (SNB-19): > 100 µM (inactive) | GI50 (SR): > 100 µM (inactive) | GI50 (UACC-257): > 100 µM (inactive) | GI50 (UACC-62): > 100 µM (inactive)

CCOC(=O)c1c(C)n(Cc2ccccc2)c(=O)c2ccccc2c(=O)c2c(=O)ccc(=O)c1=2
GI50 (A549): > 100 µM (inactive) | GI50 (ACHN): 30.7 µM (inactive) | GI50 (HCT-116): 18.2 µM (inactive) | GI50 (HCT-15): 34.8 µM | GI50 (Hs-578T): > 100 µM (inactive) | GI50 (K562): 43.3 µM (inactive) | GI50 (MDA-MB-231): 65 µM (inactive) | GI50 (MDA-N): 73.8 µM (inactive) | GI50 (NCI-H226): > 100 µM (inactive) | GI50 (NCI/ADR-RES): 92.7 µM (inactive) | GI50 (OVCAR-4): 45 µM (inactive) | GI50 (OVCAR-8): > 100 µM (inactive) | GI50 (RXF 393): 23.8 µM (inactive) | GI50 (SF-295): > 100 µM (inactive) | GI50 (SK-MEL-2): > 100 µM (inactive) | GI50 (SK-OV-3): > 100 µM (inactive) | GI50 (SNB-19): > 100 µM (inactive) | GI50 (SR): 30.8 µM (inactive) | GI50 (UACC-257): > 100 µM (inactive) | GI50 (UACC-62): > 100 µM (inactive)

COc1ccc(-c2cc(=O)c3c(OC)c(OC)c(OC)c(OC)c3o2)cc1 [TANGERETIN]
GI50 (A549): 51.6 µM (inactive) | GI50 (ACHN): 57 µM (inactive) | GI50 (HCT-116): 34 µM (inactive) | GI50 (HCT-15): 35 µM | GI50 (Hs-578T): 34.2 µM (inactive) | GI50 (K562): 37.8 µM (inactive) | GI50 (MDA-MB-231): 28.8 µM (inactive) | GI50 (MDA-N): 54.7 µM (inactive) | GI50 (NCI-H226): 64.7 µM (inactive) | GI50 (NCI/ADR-RES): 23.7 µM (inactive) | GI50 (OVCAR-4): 46.1 µM (inactive) | GI50 (OVCAR-8): 41.2 µM (inactive) | GI50 (RXF 393): 45.4 µM (inactive) | GI50 (SF-295): 55.3 µM (inactive) | GI50 (SK-MEL-2): 90.6 µM (inactive) | GI50 (SK-OV-3): 99.8 µM (inactive) | GI50 (SNB-19): > 100 µM (inactive) | GI50 (SR): > 100 µM (inactive) | GI50 (UACC-257): 68.4 µM (inactive) | GI50 (UACC-62): 22.4 µM (inactive)

CCOC(=O)Nc1cc(NC(/C=N/NC(C)=O)C(=O)OCC)c(OC)cc1NC(C)=O (stereo not given)
GI50 (A549): > 100 µM (inactive) | GI50 (ACHN): > 100 µM (inactive) | GI50 (HCT-116): > 100 µM (inactive) | GI50 (HCT-15): > 100 µM | GI50 (Hs-578T): > 100 µM (inactive) | GI50 (K562): > 100 µM (inactive) | GI50 (MDA-MB-231): > 100 µM (inactive) | GI50 (MDA-N): > 100 µM (inactive) | GI50 (NCI-H226): > 100 µM (inactive) | GI50 (NCI/ADR-RES): > 100 µM (inactive) | GI50 (OVCAR-4): > 100 µM (inactive) | GI50 (OVCAR-8): > 100 µM (inactive) | GI50 (RXF 393): > 100 µM (inactive) | GI50 (SF-295): > 100 µM (inactive) | GI50 (SK-MEL-2): > 100 µM (inactive) | GI50 (SK-OV-3): > 100 µM (inactive) | GI50 (SNB-19): > 100 µM (inactive) | GI50 (SR): > 100 µM (inactive) | GI50 (UACC-257): > 100 µM (inactive) | GI50 (UACC-62): > 100 µM (inactive)

NC(=O)c1ccc(NCC2=CC(=O)C=CC2=O)cc1
GI50 (A549): > 100 µM (inactive) | GI50 (ACHN): 17.7 µM (inactive) | GI50 (HCT-116): 18.7 µM (inactive) | GI50 (HCT-15): 19.2 µM | GI50 (Hs-578T): 30.3 µM (inactive) | GI50 (K562): 21.8 µM (inactive) | GI50 (MDA-MB-231): 20.1 µM (inactive) | GI50 (MDA-N): 17.3 µM (inactive) | GI50 (NCI-H226): > 100 µM (inactive) | GI50 (NCI/ADR-RES): 25.6 µM (inactive) | GI50 (OVCAR-4): 19.8 µM (inactive) | GI50 (OVCAR-8): 20.4 µM (inactive) | GI50 (RXF 393): 18.7 µM (inactive) | GI50 (SF-295): > 100 µM (inactive) | GI50 (SK-MEL-2): 20.4 µM (inactive) | GI50 (SK-OV-3): > 100 µM (inactive) | GI50 (SNB-19): > 100 µM (inactive) | GI50 (SR): 24.9 µM (inactive) | GI50 (UACC-257): 21.1 µM (inactive) | GI50 (UACC-62): 20.4 µM (inactive)
